Source: patent US20230085307A1, “PYRIDAZINONE COMPOUND AND HERBICIDE” (NISSAN CHEMICAL CORPORATION, priority 2019, published 2023)

The compounds below were run on redroot pigweed (assay: Test Example 4: herbicidal effect by soil treatment (Table 19, symbol N)). Settings: amount of applied herbicide 320 g/ha.
Format: in vivo, redroot pigweed (Amaranthus retroflexus)
Summary of the method: (§1)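 Seeds were sown in sterilized diluvial soil and covered with about 1.5 cm of soil. An emulsion formulation diluted with water to a predetermined herbicide amount was sprayed evenly onto the soil surface. Plants grew in a greenhouse at 25° C. to 30° C., and the effect was scored three weeks after application using criteria from an earlier test.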
`Cc1nn(C)c(=O)c(-c2c(-c3ccc(OC(F)F)cc3)sc3ccc(F)cc23)c1OC(=O)C1CCCO1` (centres unmarked) [2-289] was tested, and the “herbicidal effect on N: redroot pigweed” value was 5 (Herbicidal rate of 90% or more (almost completely withered)). `CCOC(=O)Oc1c(C)nn(C)c(=O)c1-c1c(-c2ccc(OC(F)F)cc2)sc2ccc(F)cc12` [2-292] was tested, and the “herbicidal effect on N: redroot pigweed” value was 5 (Herbicidal rate of 90% or more (almost completely withered)).

The compounds below were run on oval-leafed pondweed (assay: Test Example 2: herbicidal activity, application during weed generation under submerged conditions (Table 17, symbol C)). Settings: AAH 320 g/ha; application during weed generation, submerged conditions.
Format: in vivo, oval-leafed pondweed (Monochoria vaginalis)
Summary of the method: (§2)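 Mixed weed seedlings in alluvial soil under a 4 cm water layer, greenhouse-grown at 25–30° C. Compound given as a diluted emulsion into the floodwater at the 1–2 leaf stage; response graded after three weeks.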
In the case of `Cc1nn(C)c(=O)c(-c2c(-c3ccc(OC(F)F)cc3)sc3ccc(F)cc23)c1OC(=O)C1CCCO1` (centres unmarked) [2-289], the “herbicidal effect rating, C: oval-leafed pondweed” value is reported as 4 (Herbicidal rate of 70% or more and less than 90%). With `CCOC(=O)Oc1c(C)nn(C)c(=O)c1-c1c(-c2ccc(OC(F)F)cc2)sc2ccc(F)cc12` [2-292] the “herbicidal effect rating, C: oval-leafed pondweed” value was 5 (Herbicidal rate of 90% or more (almost completely withered)).

The compounds below were run on wild oat (assay: Test Example 5: herbicidal effect by foliage application, plastic box (Table 20, symbol I)). Settings: foliage application, AAH 320 g/ha, evaluated three weeks after application.
Format: in vivo, wild oat (Avena fatua)
Summary of the method: (§3)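 Plants sown in sterilized diluvial soil and grown 14 days in a greenhouse at 25° C to 30° C, then sprayed on the foliage with the compound's emulsion diluted in water to a predetermined herbicide amount. Injury to weeds and crops scored three weeks after application on a visual rating scale.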
In the case of `Cc1nn(C)c(=O)c(-c2c(-c3ccc(OC(F)F)cc3)sc3ccc(F)cc23)c1OC(=O)C1CCCO1` (centres unmarked) [2-289], the “I: wild oat, herbicidal effect (criteria 0-5)” value is reported as 4 (Herbicidal rate of 70% or more and less than 90%). `CCOC(=O)Oc1c(C)nn(C)c(=O)c1-c1c(-c2ccc(OC(F)F)cc2)sc2ccc(F)cc12` [2-292] was tested, and the “I: wild oat, herbicidal effect (criteria 0-5)” value was 3 (Herbicidal rate of 40% or more and less than 70%).

Each compound was assayed on barnyard grass (assay: Test Example 4: herbicidal effect by soil treatment (Table 19, symbol H)). Settings: amount of applied herbicide 320 g/ha.
Format: in vivo, barnyard grass (Echinochloa crus-galli)
Summary of the method: as §1
With `Cc1nn(C)c(=O)c(-c2c(-c3ccc(OC(F)F)cc3)sc3ccc(F)cc23)c1OC(=O)C1CCCO1` (centres unmarked) [2-289] the “herbicidal effect on H: barnyard grass” value was 5 (Herbicidal rate of 90% or more (almost completely withered)). With `CCOC(=O)Oc1c(C)nn(C)c(=O)c1-c1c(-c2ccc(OC(F)F)cc2)sc2ccc(F)cc12` [2-292] the “herbicidal effect on H: barnyard grass” value was 5 (Herbicidal rate of 90% or more (almost completely withered)).

These compounds were tested on green foxtail (assay: Test Example 4: herbicidal effect by soil treatment (Table 19, symbol G)). Settings: amount of applied herbicide 320 g/ha.
Format: in vivo, green foxtail (Setaria viridis)
Summary of the method: as §1
With `Cc1nn(C)c(=O)c(-c2c(-c3ccc(OC(F)F)cc3)sc3ccc(F)cc23)c1OC(=O)C1CCCO1` (centres unmarked) [2-289] the “herbicidal effect on G: green foxtail” value was 5 (Herbicidal rate of 90% or more (almost completely withered)). With `CCOC(=O)Oc1c(C)nn(C)c(=O)c1-c1c(-c2ccc(OC(F)F)cc2)sc2ccc(F)cc12` [2-292] the “herbicidal effect on G: green foxtail” value was 5 (Herbicidal rate of 90% or more (almost completely withered)).

What follows are compounds tested on chickweed (assay: Test Example 5: herbicidal effect by foliage application, plastic box (Table 20, symbol P)). Settings: foliage application, AAH 320 g/ha, evaluated three weeks after application.
Format: in vivo, common chickweed (Stellaria media)
Summary of the method: as §3
With `Cc1nn(C)c(=O)c(-c2c(-c3ccc(OC(F)F)cc3)sc3ccc(F)cc23)c1OC(=O)C1CCCO1` (centres unmarked) [2-289] the “P: chickweed, herbicidal effect (criteria 0-5)” value was 5 (Herbicidal rate of 90% or more (almost completely withered)). For `CCOC(=O)Oc1c(C)nn(C)c(=O)c1-c1c(-c2ccc(OC(F)F)cc2)sc2ccc(F)cc12` [2-292], the “P: chickweed, herbicidal effect (criteria 0-5)” value was 5 (Herbicidal rate of 90% or more (almost completely withered)).

The compounds below were run on green foxtail (assay: Test Example 5: herbicidal effect by foliage application, plastic box (Table 20, symbol G)). Settings: foliage application, AAH 320 g/ha, evaluated three weeks after application.
Format: in vivo, green foxtail (Setaria viridis)
Summary of the method: as §3
In the case of `Cc1nn(C)c(=O)c(-c2c(-c3ccc(OC(F)F)cc3)sc3ccc(F)cc23)c1OC(=O)C1CCCO1` (centres unmarked) [2-289], the “G: green foxtail, herbicidal effect (criteria 0-5)” value is reported as 5 (Herbicidal rate of 90% or more (almost completely withered)). For `CCOC(=O)Oc1c(C)nn(C)c(=O)c1-c1c(-c2ccc(OC(F)F)cc2)sc2ccc(F)cc12` [2-292], the “G: green foxtail, herbicidal effect (criteria 0-5)” value was 5 (Herbicidal rate of 90% or more (almost completely withered)).

What follows are compounds tested on persian speedwell (assay: Test Example 5: herbicidal effect by foliage application, plastic box (Table 20, symbol R)). Settings: foliage application, AAH 320 g/ha, evaluated three weeks after application.
Format: in vivo, Persian speedwell (Veronica persica)
Summary of the method: as §3
In the case of `Cc1nn(C)c(=O)c(-c2c(-c3ccc(OC(F)F)cc3)sc3ccc(F)cc23)c1OC(=O)C1CCCO1` (centres unmarked) [2-289], the “R: persian speedwell, herbicidal effect (criteria 0-5)” value is reported as 5 (Herbicidal rate of 90% or more (almost completely withered)). In the case of `CCOC(=O)Oc1c(C)nn(C)c(=O)c1-c1c(-c2ccc(OC(F)F)cc2)sc2ccc(F)cc12` [2-292], the “R: persian speedwell, herbicidal effect (criteria 0-5)” value is reported as 5 (Herbicidal rate of 90% or more (almost completely withered)).

The compounds below were run on Japanese bulrush (assay: Test Example 2: herbicidal activity, application during weed generation under submerged conditions (Table 17, symbol B)). Settings: AAH 320 g/ha; application during weed generation, submerged conditions.
Format: in vivo, Japanese bulrush (Schoenoplectus juncoides)
Summary of the method: as §2
For `Cc1nn(C)c(=O)c(-c2c(-c3ccc(OC(F)F)cc3)sc3ccc(F)cc23)c1OC(=O)C1CCCO1` (centres unmarked) [2-289], the “herbicidal effect rating, B: Japanese bulrush” value was 3 (Herbicidal rate of 40% or more and less than 70%). With `CCOC(=O)Oc1c(C)nn(C)c(=O)c1-c1c(-c2ccc(OC(F)F)cc2)sc2ccc(F)cc12` [2-292] the “herbicidal effect rating, B: Japanese bulrush” value was 5 (Herbicidal rate of 90% or more (almost completely withered)).

Each compound was assayed on southern crabgrass (assay: Test Example 5: herbicidal effect by foliage application, plastic box (Table 20, symbol F)). Settings: foliage application, AAH 320 g/ha, evaluated three weeks after application.
Format: in vivo, southern crabgrass (Digitaria ciliaris)
Summary of the method: as §3
`Cc1nn(C)c(=O)c(-c2c(-c3ccc(OC(F)F)cc3)sc3ccc(F)cc23)c1OC(=O)C1CCCO1` (centres unmarked) [2-289] was tested, and the “F: southern crabgrass, herbicidal effect (criteria 0-5)” value was 3 (Herbicidal rate of 40% or more and less than 70%). With `CCOC(=O)Oc1c(C)nn(C)c(=O)c1-c1c(-c2ccc(OC(F)F)cc2)sc2ccc(F)cc12` [2-292] the “F: southern crabgrass, herbicidal effect (criteria 0-5)” value was 5 (Herbicidal rate of 90% or more (almost completely withered)).

The compounds below were run on wild oat (assay: Test Example 4: herbicidal effect by soil treatment (Table 19, symbol I)). Settings: amount of applied herbicide 320 g/ha.
Format: in vivo, wild oat (Avena fatua)
Summary of the method: as §1
In the case of `Cc1nn(C)c(=O)c(-c2c(-c3ccc(OC(F)F)cc3)sc3ccc(F)cc23)c1OC(=O)C1CCCO1` (centres unmarked) [2-289], the “herbicidal effect on I: wild oat” value is reported as 2 (Herbicidal rate of 20% or more and less than 40%). For `CCOC(=O)Oc1c(C)nn(C)c(=O)c1-c1c(-c2ccc(OC(F)F)cc2)sc2ccc(F)cc12` [2-292], the “herbicidal effect on I: wild oat” value was 0 (Herbicidal rate of 5% or less (almost no effect)).

Each compound was assayed on windgrass (assay: Test Example 5: herbicidal effect by foliage application, plastic box (Table 20, symbol L)). Settings: foliage application, AAH 320 g/ha, evaluated three weeks after application.
Format: in vivo, windgrass (Apera spica-venti)
Summary of the method: as §3
With `Cc1nn(C)c(=O)c(-c2c(-c3ccc(OC(F)F)cc3)sc3ccc(F)cc23)c1OC(=O)C1CCCO1` (centres unmarked) [2-289] the “L: windgrass, herbicidal effect (criteria 0-5)” value was 5 (Herbicidal rate of 90% or more (almost completely withered)). In the case of `CCOC(=O)Oc1c(C)nn(C)c(=O)c1-c1c(-c2ccc(OC(F)F)cc2)sc2ccc(F)cc12` [2-292], the “L: windgrass, herbicidal effect (criteria 0-5)” value is reported as 2 (Herbicidal rate of 20% or more and less than 40%).

The compounds below were run on chickweed (assay: Test Example 4: herbicidal effect by soil treatment (Table 19, symbol P)). Settings: amount of applied herbicide 320 g/ha.
Format: in vivo, common chickweed (Stellaria media)
Summary of the method: as §1
With `Cc1nn(C)c(=O)c(-c2c(-c3ccc(OC(F)F)cc3)sc3ccc(F)cc23)c1OC(=O)C1CCCO1` (centres unmarked) [2-289] the “herbicidal effect on P: chickweed” value was 5 (Herbicidal rate of 90% or more (almost completely withered)). With `CCOC(=O)Oc1c(C)nn(C)c(=O)c1-c1c(-c2ccc(OC(F)F)cc2)sc2ccc(F)cc12` [2-292] the “herbicidal effect on P: chickweed” value was 4 (Herbicidal rate of 70% or more and less than 90%).

What follows are compounds tested on Japanese bulrush (assay: Test Example 1: herbicidal activity, application before weed generation under submerged conditions (Table 16, symbol B)). Settings: 320 g/ha applied herbicide.
Format: in vivo, Japanese bulrush (Schoenoplectus juncoides)
Summary of the method: (§4)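 Submerged Wagner pots (alluvial soil, 4 cm water) sown with weed seeds and planted with 2.5-leaf rice seedlings; emulsifiable concentrate diluted in water applied to water surface on sowing day. Held in greenhouse at 25-30 °C; injury scored 0-5 by herbicidal rate after three weeks.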
`Cc1nn(C)c(=O)c(-c2c(-c3ccc(OC(F)F)cc3)sc3ccc(F)cc23)c1OC(=O)C1CCCO1` (centres unmarked) [2-289] was tested, and the “Herbicidal effect on B: Japanese bulrush (grade 0-5)” value was 3 (Herbicidal rate of 40% or more and less than 70%). In the case of `CCOC(=O)Oc1c(C)nn(C)c(=O)c1-c1c(-c2ccc(OC(F)F)cc2)sc2ccc(F)cc12` [2-292], the “Herbicidal effect on B: Japanese bulrush (grade 0-5)” value is reported as 5 (Herbicidal rate of 90% or more (almost completely withered)).

These compounds were tested on barnyard grass (assay: Test Example 5: herbicidal effect by foliage application, plastic box (Table 20, symbol H)). Settings: foliage application, AAH 320 g/ha, evaluated three weeks after application.
Format: in vivo, barnyard grass (Echinochloa crus-galli)
Summary of the method: as §3
In the case of `Cc1nn(C)c(=O)c(-c2c(-c3ccc(OC(F)F)cc3)sc3ccc(F)cc23)c1OC(=O)C1CCCO1` (centres unmarked) [2-289], the “H: barnyard grass, herbicidal effect (criteria 0-5)” value is reported as 5 (Herbicidal rate of 90% or more (almost completely withered)). `CCOC(=O)Oc1c(C)nn(C)c(=O)c1-c1c(-c2ccc(OC(F)F)cc2)sc2ccc(F)cc12` [2-292] was tested, and the “H: barnyard grass, herbicidal effect (criteria 0-5)” value was 5 (Herbicidal rate of 90% or more (almost completely withered)).

Each compound was assayed on oval-leafed pondweed (assay: Test Example 1: herbicidal activity, application before weed generation under submerged conditions (Table 16, symbol C)). Settings: 320 g/ha applied herbicide.
Format: in vivo, oval-leafed pondweed (Monochoria vaginalis)
Summary of the method: as §4
In the case of `Cc1nn(C)c(=O)c(-c2c(-c3ccc(OC(F)F)cc3)sc3ccc(F)cc23)c1OC(=O)C1CCCO1` (centres unmarked) [2-289], the “Herbicidal effect on C: oval-leafed pondweed (grade 0-5)” value is reported as 3 (Herbicidal rate of 40% or more and less than 70%). For `CCOC(=O)Oc1c(C)nn(C)c(=O)c1-c1c(-c2ccc(OC(F)F)cc2)sc2ccc(F)cc12` [2-292], the “Herbicidal effect on C: oval-leafed pondweed (grade 0-5)” value was 4 (Herbicidal rate of 70% or more and less than 90%).
